The target in assay [1] is T1, ΔF508-CFTR (Homo sapiens, UniProt P13569, DEL508-508).
T1 construct: host or cells: CFBE41o-, doxycycline-inducible
Description: CFTR cell surface levels using HRP-tagged ΔF508-CFTR expressing CFBE cells, in the presence of a co-corrector. The conditions noted are these: HRP-tagged ΔF508-CFTR CFBE cells, in the presence of 3 μM co-corrector; for EC50: read-out: EC50. It counts as cell-based. The method, boiled down: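 Chemiluminescent read-out of surface HRP (15 min, dark) after PBS washes. Activity is normalized as 100×(sample−DMSO)/(3 μM co-corrector alone−DMSO).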

Assay [2] has as its target T1, ΔF508-CFTR. Briefly: CFTR cell surface levels using HRP-tagged ΔF508-CFTR expressing CFBE cells, intrinsic corrector capacity. It is filed as cell-based. The conditions noted are these: HRP-tagged ΔF508-CFTR expressing CFBE41o- cells, compound alone (intrinsic corrector capacity), 20 hours at 33° C.; for EC50: read-out: EC50. The arrangement: % Activation: concentration or dose not given beside the values. In a few lines: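 Read-out: chemiluminescent HRP activity of ECL4-HRP-tagged ΔF508-CFTR at the cell surface, 15 min substrate in dark. Normalized as 100×(sample−DMSO)/(positive control−DMSO).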

T1 sequence (P13569 with tags, fused parts or gaps DEL508-508): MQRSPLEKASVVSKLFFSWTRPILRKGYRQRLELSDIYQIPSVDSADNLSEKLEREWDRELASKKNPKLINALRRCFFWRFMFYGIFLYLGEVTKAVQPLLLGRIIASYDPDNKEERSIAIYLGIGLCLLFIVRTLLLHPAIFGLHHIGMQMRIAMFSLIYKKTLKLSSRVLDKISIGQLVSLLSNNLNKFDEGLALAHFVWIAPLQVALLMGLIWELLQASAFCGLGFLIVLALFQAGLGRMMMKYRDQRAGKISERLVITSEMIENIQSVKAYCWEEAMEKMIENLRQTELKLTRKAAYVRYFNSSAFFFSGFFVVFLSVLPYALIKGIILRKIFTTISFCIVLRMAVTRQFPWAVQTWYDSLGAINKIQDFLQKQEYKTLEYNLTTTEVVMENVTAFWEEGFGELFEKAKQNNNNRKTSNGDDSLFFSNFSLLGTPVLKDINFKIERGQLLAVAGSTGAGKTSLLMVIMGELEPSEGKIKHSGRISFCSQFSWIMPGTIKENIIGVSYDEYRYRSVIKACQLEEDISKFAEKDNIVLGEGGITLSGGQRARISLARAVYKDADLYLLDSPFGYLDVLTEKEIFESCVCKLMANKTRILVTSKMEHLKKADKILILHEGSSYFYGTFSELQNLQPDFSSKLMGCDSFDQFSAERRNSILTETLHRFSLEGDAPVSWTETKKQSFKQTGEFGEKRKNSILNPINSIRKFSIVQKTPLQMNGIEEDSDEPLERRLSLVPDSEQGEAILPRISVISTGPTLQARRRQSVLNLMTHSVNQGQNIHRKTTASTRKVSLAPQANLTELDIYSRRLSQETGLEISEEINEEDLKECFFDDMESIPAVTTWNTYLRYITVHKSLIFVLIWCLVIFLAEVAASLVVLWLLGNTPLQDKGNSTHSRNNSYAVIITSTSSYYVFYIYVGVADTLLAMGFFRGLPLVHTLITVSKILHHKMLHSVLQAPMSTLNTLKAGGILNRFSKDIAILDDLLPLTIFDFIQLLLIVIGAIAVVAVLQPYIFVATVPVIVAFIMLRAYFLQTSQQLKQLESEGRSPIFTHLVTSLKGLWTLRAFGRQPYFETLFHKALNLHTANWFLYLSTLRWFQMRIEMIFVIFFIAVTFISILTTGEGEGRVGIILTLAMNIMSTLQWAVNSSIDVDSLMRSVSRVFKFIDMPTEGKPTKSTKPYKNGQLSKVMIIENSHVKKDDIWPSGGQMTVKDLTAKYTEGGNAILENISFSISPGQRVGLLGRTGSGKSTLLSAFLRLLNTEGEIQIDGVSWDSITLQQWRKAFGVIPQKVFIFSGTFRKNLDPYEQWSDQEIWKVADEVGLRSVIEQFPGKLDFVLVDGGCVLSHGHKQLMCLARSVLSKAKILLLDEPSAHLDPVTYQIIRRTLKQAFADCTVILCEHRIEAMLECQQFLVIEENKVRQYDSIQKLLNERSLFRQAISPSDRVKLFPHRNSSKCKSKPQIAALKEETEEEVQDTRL

A word on the EC50: it is the concentration needed to bring the measured effect to its halfway point. Consider `CS(=O)(=O)NC(=O)c1cc(-c2ccc(N3CCC(C#N)CC3)nc2)c2c(n1)n(-c1ccccc1)nc2[C@H]1C[C@H](C)C1` [Compound 257, 4-[6-(4-cyanopiperidin-1-yl)pyridin-3-yl]-N-(methanesulfonyl)-3-(trans-3-methylcyclobutyl)-1-phenyl-1H-pyrazolo[3,4-b]pyridine-6-carboxamide], for which, at ΔF508-CFTR [1], the “% Activation” value is on record as 451.25% and the EC50 amounted to 74.3 nM. Besides, at ΔF508-CFTR [2], the “% Activation” value is 272.4% and the EC50 was determined as 370 nM.

With `CS(=O)(=O)NC(=O)c1cc(-c2ccc(N3CCC(C#N)CC3)nc2)c2c(OC3CCNCC3)nn(-c3ccccc3)c2n1` [Compound 258, 4-[6-(4-cyanopiperidin-1-yl)pyridin-3-yl]-N-(methanesulfonyl)-1-phenyl-3-[(piperidin-4-yl)oxy]-1H-pyrazolo[3,4-b]pyridine-6-carboxamide], the “% Activation” value at ΔF508-CFTR [1] was 127.1%; on ΔF508-CFTR [2], 8.829%. The EC50 at ΔF508-CFTR [1] and at ΔF508-CFTR [2] was more than 10000 nM throughout.

As to `COCC1CCN(c2cc(C(=O)NS(=O)(=O)CCN3C(=O)c4ccccc4C3=O)nc3c2c(C2CCC2)nn3-c2ccccc2)CC1` [Compound 260, 3-cyclobutyl-N-[2-(1,3-dioxoisoindolin-2-yl)ethylsulfonyl]-4-[4-(methoxymethyl)-1-piperidyl]-1-phenyl-pyrazolo[3,4-b]pyridine-6-carboxamide], at ΔF508-CFTR [1], the “% Activation” value is 664.07% and the EC50 is 130 nM. Further, at ΔF508-CFTR [2], the “% Activation” value worked out at 473.35% and the EC50 came to 1870 nM.

Turning to `COCC1CCN(c2cc(C(=O)NS(=O)(=O)CCN)nc3c2c(C2CCC2)nn3-c2ccccc2)CC1` [Compound 261, N-(2-aminoethanesulfonyl)-3-cyclobutyl-4-[4-(methoxymethyl)piperidin-1-yl]-1-phenyl-1H-pyrazolo[3,4-b]pyridine-6-carboxamide], at ΔF508-CFTR [1], the “% Activation” value worked out at 129.3% and the EC50 was more than 10000 nM. For the same molecule, at ΔF508-CFTR [2], the “% Activation” value was 26.85% and the EC50 is more than 10000 nM.

Regarding `COCC1CCN(c2cc(C(=O)NS(C)(=O)=O)nc3c2c(C(C)C)nn3CC2CCC2)CC1` [Compound 262, 1-(cyclobutylmethyl)-N-(methanesulfonyl)-4-[4-(methoxymethyl)piperidin-1-yl]-3-(propan-2-yl)-1H-pyrazolo[3,4-b]pyridine-6-carboxamide], the entries for the “% Activation” value on ΔF508-CFTR [1] and at ΔF508-CFTR [2] were 420.17% and 232.07%, respectively. Besides, the EC50 on ΔF508-CFTR [1] was 523 nM; at ΔF508-CFTR [2] it was 598 nM.

Turning to `COCC1CCN(c2cc(C(=O)NS(C)(=O)=O)nc3c2c(C(C)C)nn3CC(C)C)CC1` [Compound 264, N-(methanesulfonyl)-4-[4-(methoxymethyl)piperidin-1-yl]-1-(2-methylpropyl)-3-(propan-2-yl)-1H-pyrazolo[3,4-b]pyridine-6-carboxamide], the “% Activation” value at ΔF508-CFTR [1] is 478.6%; at ΔF508-CFTR [2] it was 242.5%. Also, the figures for the EC50 on ΔF508-CFTR [1] and on ΔF508-CFTR [2] were 3330 nM and 969 nM, respectively.

As for `COCCS(=O)(=O)NC(=O)c1cc(N2CCC(COC)CC2)c2c(C(C)C)nn(CC(C)C)c2n1` [Compound 265, N-(2-methoxyethanesulfonyl)-4-[4-(methoxymethyl)piperidin-1-yl]-1-(2-methylpropyl)-3-(propan-2-yl)-1H-pyrazolo[3,4-b]pyridine-6-carboxamide], the “% Activation” value on ΔF508-CFTR [1] is reported as 427.8%; at ΔF508-CFTR [2], 240.8%. The EC50 at ΔF508-CFTR [1] is 2140 nM; on ΔF508-CFTR [2], 3330 nM.

As for `CC(C)c1nn(-c2ccc(F)cc2)c2nc(C(=O)NS(C)(=O)=O)cc(N3CCN(CC(F)(F)F)CC3)c12` [Compound 266, 1-(4-fluorophenyl)-N-(methanesulfonyl)-3-(propan-2-yl)-4-[4-(2,2,2-trifluoroethyl)piperazin-1-yl]-1H-pyrazolo[3,4-b]pyridine-6-carboxamide], at ΔF508-CFTR [1], the “% Activation” value is on record as 328.87% and the EC50 worked out at 231 nM. Besides, at ΔF508-CFTR [2], the “% Activation” value was determined as 161.5% and the EC50 worked out at 332 nM.

With `COCC1CCN(c2cc(C(=O)NS(C)(=O)=O)nc3c2c(C(C)C)nn3-c2ccc(=O)n(C)n2)CC1` [Compound 268, N-(methanesulfonyl)-4-[4-(methoxymethyl)piperidin-1-yl]-1-(1-methyl-6-oxo-1,6-dihydropyridazin-3-yl)-3-(propan-2-yl)-1H-pyrazolo[3,4-b]pyridine-6-carboxamide], at ΔF508-CFTR [1], the “% Activation” value was 122.05% and the EC50 is more than 10000 nM. In addition, at ΔF508-CFTR [2], the “% Activation” value stood at 5.213% and the EC50 is more than 10000 nM.

For the molecule `COCCS(=O)(=O)NC(=O)c1cc(N2CCN(C(C)C)CC2)c2c(C3CCC3)nn(-c3ccccc3)c2n1` [Compound 271, 3-cyclobutyl-N-(2-methoxyethanesulfonyl)-1-phenyl-4-[4-(propan-2-yl)piperazin-1-yl]-1H-pyrazolo[3,4-b]pyridine-6-carboxamide], at ΔF508-CFTR [1], the “% Activation” value worked out at 260.47% and the EC50 was 1020 nM. Besides, at ΔF508-CFTR [2], the “% Activation” value was found to be 63.905% and the EC50 came to 1950 nM.

With `COCCS(=O)(=O)NC(=O)c1cc(-c2ccc(N3CCC(C#N)CC3)nc2)c2c(OC3CCOC3)nn(-c3ccccc3)c2n1` (stereo not shown) [Compound 275, 4-[6-(4-cyanopiperidin-1-yl)pyridin-3-yl]-N-(2-methoxyethanesulfonyl)-3-[(oxolan-3-yl)oxy]-1-phenyl-1H-pyrazolo[3,4-b]pyridine-6-carboxamide], on ΔF508-CFTR [1], the “% Activation” value came out at 269.85% and the EC50 is 138 nM. Also, on ΔF508-CFTR [2], the “% Activation” value was found to be 138.8% and the EC50 was 468 nM.

As for `COCCS(=O)(=O)NC(=O)c1cc(-c2ccc(N3CCC(C#N)CC3)nc2)c2c(n1)n(-c1ccccc1)nc2[C@H]1C[C@H](C)C1` [Compound 276, 4-[6-(4-cyanopiperidin-1-yl)pyridin-3-yl]-N-(2-methoxyethanesulfonyl)-3-(trans-3-methylcyclobutyl)-1-phenyl-1H-pyrazolo[3,4-b]pyridine-6-carboxamide], on ΔF508-CFTR [1], the “% Activation” value is 417.25% and the EC50 came to 42.9 nM. At ΔF508-CFTR [2], the “% Activation” value was 356.7% and the EC50 came to 779 nM.

Consider `CS(=O)(=O)NC(=O)c1cc(-c2ccc(N3CCC(C#N)CC3)nc2)c2c(OC3CCOC3)nn(-c3ccccc3)c2n1` (stereo not shown) [Compound 277, 4-[6-(4-cyanopiperidin-1-yl)pyridin-3-yl]-N-(methanesulfonyl)-3-[(oxolan-3-yl)oxy]-1-phenyl-1H-pyrazolo[3,4-b]pyridine-6-carboxamide], for which the “% Activation” value at ΔF508-CFTR [1] is recorded as 355.4%; at ΔF508-CFTR [2], 155.4%. Besides, the EC50 amounted to 127 nM on ΔF508-CFTR [1] and 251 nM at ΔF508-CFTR [2].

As to `CC(C)c1nn(-c2cccc(N(C)C)c2)c2nc(C(=O)NS(C)(=O)=O)cc(OCC3CCOCC3)c12` [Compound 278, 1-[3-(dimethylamino)phenyl]-N-(methanesulfonyl)-4-[(oxan-4-yl)methoxy]-3-(propan-2-yl)-1H-pyrazolo[3,4-b]pyridine-6-carboxamide], at ΔF508-CFTR [1], the “% Activation” value is recorded as 388.5% and the EC50 was 88.3 nM. In addition, on ΔF508-CFTR [2], the “% Activation” value is 233.7% and the EC50 amounted to 120 nM.

For `CC(C)c1nn(-c2ccc(F)cc2)c2nc(C(=O)NS(C)(=O)=O)cc(N3CCN(C4CCC4)CC3)c12` [Compound 280, 4-(4-cyclobutylpiperazin-1-yl)-1-(4-fluorophenyl)-N-(methanesulfonyl)-3-(propan-2-yl)-1H-pyrazolo[3,4-b]pyridine-6-carboxamide], the “% Activation” value at ΔF508-CFTR [1] stood at 323.37%; on ΔF508-CFTR [2], 121.9%. Further, the EC50 on ΔF508-CFTR [1] and at ΔF508-CFTR [2] was 1010 nM throughout.

In the case of `CS(=O)(=O)NC(=O)c1cc(OCCCN2CCOCC2)c2c(C3CCC3)nn(-c3ccccc3)c2n1` [Compound 281, 3-cyclobutyl-N-(methanesulfonyl)-4-[3-(morpholin-4-yl)propoxy]-1-phenyl-1H-pyrazolo[3,4-b]pyridine-6-carboxamide], at ΔF508-CFTR [1], the “% Activation” value is listed as 398.47% and the EC50 is 242 nM. At ΔF508-CFTR [2], the “% Activation” value stood at 230.15% and the EC50 was found to be 457 nM.

Turning to `CC1(COc2cc(C(=O)NS(C)(=O)=O)nc3c2c(C2CCC2)nn3-c2ccccc2)CC(F)(F)C1` [Compound 282, 3-cyclobutyl-4-[(3,3-difluoro-1-methylcyclobutyl)methoxy]-N-(methanesulfonyl)-1-phenyl-1H-pyrazolo[3,4-b]pyridine-6-carboxamide], on ΔF508-CFTR [1], the “% Activation” value stood at 379.95% and the EC50 turned out to be 89 nM. On ΔF508-CFTR [2], the “% Activation” value came to 127.8% and the EC50 stood at 129 nM.

For the molecule `CS(=O)(=O)NC(=O)c1cc(OCC2CCCO2)c2c(C3CCC3)nn(-c3ccccc3)c2n1` (stereo not shown) [Compound 283, 3-cyclobutyl-N-(methanesulfonyl)-4-[(oxolan-2-yl)methoxy]-1-phenyl-1H-pyrazolo[3,4-b]pyridine-6-carboxamide], at ΔF508-CFTR [1], the “% Activation” value was 326.85% and the EC50 was 265 nM. Also, on ΔF508-CFTR [2], the “% Activation” value came to 141.2% and the EC50 came out at 477 nM.

As to `CC(C)c1nn(-c2ccc(F)cc2)c2nc(C(=O)NS(C)(=O)=O)cc(OCC3CCOCC3)c12` [Compound 284, 1-(4-fluorophenyl)-N-(methanesulfonyl)-4-[(oxan-4-yl)methoxy]-3-(propan-2-yl)-1H-pyrazolo[3,4-b]pyridine-6-carboxamide], at ΔF508-CFTR [1], the “% Activation” value was determined as 348.7% and the EC50 was found to be 220 nM. In addition, at ΔF508-CFTR [2], the “% Activation” value is given as 154.4% and the EC50 worked out at 276 nM.

The values above are taken from patent US10259810B2, “N-sulfonylated pyrazolo[3,4-b]pyridin-6-carboxamides and method of use” (AbbVie S.à.r.l., priority 2015, dated 2019).
